SMILES strings stand for the structures. pEC50: −log10 of the molar value. Like-named read-outs stand apart in the source and are kept apart here.

Here are results for eleven molecules from patent publication US20040229817A1, “Inhibitors of Hepatitis C virus, compositions and treatments using the same” (priority 2003, published 2004).

One data set is described as follows: in vitro. To be noted: human, three days incubation. In kind it is cell-based. The procedure: (§1) All compounds were tested in an HCV reporter replicon assay. Briefly, a reporter replicon containing Huh-7 hepatoma cells was grown in DMEM (Invitrogen, Carlsbad, Calif.) and seeded in 96-well black wall, clear-bottom plates (Costar®; Coming Incorporated). Cells were allowed to settle at 37° C., 5% CO2 for 30 minutes. The compounds were serially diluted in separate 96 well plates and […] of each concentration was added to the appropriate well in triplicate. The plates are incubated at 37° C., 5% CO2 for three days.
(§2) Following three days of incubation, the media was aspirated from the wells and cells are washed with 100 μl PBS. After removing the PBS, 20 μl of 1× Passive Lysis Buffer (Promega Corp., Madison, Wis.) is added to each well, and the cells are allowed to lyse at room temperature for 15 minutes. Antiviral activity and cytotoxicity is measured following lysis using the dual luciferase kit (Promega Corp., Madison, Wis.). The percent antiviral inhibition and percent cytotoxicity for each concentration is calculated after subtracting the background values of media only wells from wells containing cells, and subtratcting 100 from the percent ratio of the value in the compound well to the cell only control well.

For the next data set, the system named is HCV reporter replicon. Description: HCV reporter replicon assay, antiviral activity (dual luciferase). To be noted: for pEC50: Hepatitis C virus. The format is cell-based. On the procedure:
as §1, §2
For orientation: Replicon systems follow genome replication, usually without infectious particles.

Data set [1] in a line: Solubility (Sol.) reported with the replicon assay.
The mark [2] stands for this setting: Huh-7, 72 h, 7-pt Assay, replicon-containing Huh-7 cells, three days incubation, read-out: EC50.
[3] abbreviates: Huh-7, 72 h, Extended 8-pt Assay, replicon-containing Huh-7 cells, three days incubation, read-out: EC50.
[4] abbreviates: 7-pt Assay, value marked (exp), read-out: EC50 (exp).

What is called CC50 is the concentration that lowers cell viability or growth by half. A word on the pEC50: it is −log10 of the EC50, conventionally taken in molar units. Consider `COC(=O)c1ccc(NC(=O)[C@H](CC(C)C)NC(=O)[C@@H](CC(=O)NO)c2ccccc2)cc1` [Example 8, methyl 4-({N-[(2S)-4-(hydroxyamino)-4-oxo-2-phenylbutanoyl]-L-leucyl}amino)benzoate], for which the CC50 at 3 days in the data set “in vitro” (7-pt Assay) and in the data set “in vitro” (Extended 8-pt Assay) was more than 320000 nM each time. The same molecule had a CC50/EC50 in the data set on HCV reporter replicon (7-pt Assay) of 218. The pEC50 in the data set with HCV reporter replicon (setting [2]) is 5.82; in the data set with HCV reporter replicon (setting [3]) it was 5.92. The Sol. is less than 100 µM in data set [1] (7-pt Assay); 32 in data set [1] (7-pt Assay, unit not given); less than 320 µM in data set [1] (Extended 8-pt Assay).
Take `O=C(NO)C1=C(SCCc2ccc(-c3ccccc3)cc2)CCCC1` [Example 1, 2-(2-Biphenyl-4-yl-ethylsulfanyl)-cyclohex-1-ene-carboxylic Acid Hydroxyamide]: the 50% cytotoxic concentration (CC50) at 3 days was determined as 32000 nM in the data set “in vitro” (7-pt Assay) and 31000 nM in the data set “in vitro” (Extended 8-pt Assay). In the data set with HCV reporter replicon (7-pt Assay), this molecule registered a CC50/EC50 of 15. In addition, the pEC50 is 5.68 in the data set on HCV reporter replicon (setting [2]) and 5.80 in the data set on HCV reporter replicon (setting [3]). The Sol. in data set [1] (7-pt Assay) is less than 320 µM; in data set [1] (7-pt Assay, unit not given) it was 100; in data set [1] (Extended 8-pt Assay), more than 320 µM.
As to `O=C(NO)[C@@H]1CCCC[C@@H]1SCCc1ccccc1` [Example 3], the values for the CC50 at 3 days in the data set “in vitro” (7-pt Assay) and in the data set “in vitro” (Extended 8-pt Assay) were not below 320000 nM and 211000 nM, respectively. Also, the CC50/EC50 in the data set with HCV reporter replicon (7-pt Assay) is on record as 130. Further, the pEC50 with HCV reporter replicon (setting [2]) is 5.60; with HCV reporter replicon (setting [3]), 5.72. Further, the Sol. was more than 320 µM in data set [1] (7-pt Assay); 320 in data set [1] (7-pt Assay, unit not given); more than 320 µM in data set [1] (Extended 8-pt Assay).
`CC1(C)SCCN(S(=O)(=O)c2ccc(Oc3ccncc3)cc2)[C@H]1C(=O)NO` [Example 12, (3S)—N-hydroxy-2,2-dimethyl-4-{[4-(pyridin-4-yloxy)phenyl]sulfonyl}thiomorpholine-3-carboxamide]: the CC50 at 3 days is 320000 nM in “in vitro” (7-pt Assay) and more than 320000 nM in “in vitro” (Extended 8-pt Assay). In the data set with HCV reporter replicon (7-pt Assay), this molecule showed a CC50/EC50 of 880. The pEC50 in the data set on HCV reporter replicon (setting [2]) is 6.44; in the data set with HCV reporter replicon (setting [3]), 6.59. Besides, the Sol. in data set [1] (7-pt Assay) is more than 320 µM; in data set [1] (7-pt Assay, unit not given) it was 320; in data set [1] (Extended 8-pt Assay), more than 320 µM.
Consider `CC(=O)N1CCN(S(=O)(=O)c2ccc(Oc3ccccc3)cc2)C(C(=O)NO)C1` (stereo not shown) [Example 9, 4-acetyl-N-hydroxy-1-[(4-phenoxyphenyl)sulfonyl]piperazine-2-carboxamide], for which the CC50 at 3 days in the data set “in vitro” (7-pt Assay) was determined as 81000 nM; in the data set “in vitro” (Extended 8-pt Assay) it was 79000 nM. Also, the CC50/EC50 in the data set with HCV reporter replicon (7-pt Assay) is recorded as 835. Besides, the pEC50 in the data set with HCV reporter replicon (setting [4]) was 7.01; in the data set with HCV reporter replicon (setting [3]), 7.74. Also, the Sol. in data set [1] (7-pt Assay) is more than 320 µM; in data set [1] (7-pt Assay, unit not given) it was 320; in data set [1] (Extended 8-pt Assay), more than 320 µM.
Turning to `O=C(NO)[C@H]1CCCC[C@@H]1SCCc1ccc(-c2ccccc2)cc1` (relative stereo) [Example 6, trans-2-(Biphenyl-4-yl-ethylsulfanyl)cyclohexanecarboxylic Acid Hydroxyamide], the figures for the CC50 at 3 days in the data set “in vitro” (7-pt Assay) and in “in vitro” (Extended 8-pt Assay) were 111000 nM and 99000 nM, respectively. Moreover, in the data set with HCV reporter replicon (7-pt Assay), the CC50/EC50 is 3265. Also, the negative-log EC50 (pEC50) was 7.47 in the data set with HCV reporter replicon (setting [4]) and 7.30 in the data set on HCV reporter replicon (setting [3]). Besides, the Sol. is more than 320 µM in data set [1] (7-pt Assay); 320 in data set [1] (7-pt Assay, unit not given); more than 320 µM in data set [1] (Extended 8-pt Assay).
`CS(=O)(=O)N1CCN(S(=O)(=O)c2ccc(Oc3ccc(F)cc3)cc2)[C@@H](C(=O)NO)C1` [Example 11, (2R)-1-{[4-(4-fluorophenoxy)phenyl]sulfonyl}-N-hydroxy-4-(methylsulfonyl)piperazine-2-carboxamide]: the CC50 at 3 days worked out at 12000 nM in the data set “in vitro” (7-pt Assay) and 15000 nM in the data set “in vitro” (Extended 8-pt Assay). For the same molecule, the CC50/EC50 in the data set on HCV reporter replicon (7-pt Assay) is on record as 444. Further, the figures for the negative logarithm of the EC50 (pEC50) with HCV reporter replicon (setting [4]) and with HCV reporter replicon (setting [3]) were 7.57 and 7.31, respectively. Further, the Sol. in data set [1] (7-pt Assay) is more than 320 µM; in data set [1] (7-pt Assay, unit not given), 320; in data set [1] (Extended 8-pt Assay), more than 320 µM.
As to `O=C(NO)C1CCCCN1S(=O)(=O)c1ccc(Sc2ccncc2)cc1` (stereo not shown) [Example 13, N-hydroxy-1{[4-(pyridin-4-ylthio)phenyl]sulfonyl}piperidine-2-carboxamide], the CC50 at 3 days was 293000 nM in the data set “in vitro” (7-pt Assay) and 211000 nM in “in vitro” (Extended 8-pt Assay). The CC50/EC50 in the data set with HCV reporter replicon (7-pt Assay) turned out to be 667. Also, the pEC50 in the data set with HCV reporter replicon (setting [2]) was 6.36; with HCV reporter replicon (setting [3]) it was 6.46. Moreover, the Sol. is more than 320 µM in data set [1] (7-pt Assay); 320 in data set [1] (7-pt Assay, unit not given); more than 320 µM in data set [1] (Extended 8-pt Assay).
`CC(C)(C)OC(=O)N1CCN(S(=O)(=O)c2ccc(Oc3ccccn3)cc2)[C@@H](C(=O)NO)C1` [Example 10, tert-butyl (3R)-3-[(hydroxyamino)carbonyl]-4-{[4-(pyridin-2-yloxy)phenyl]sulfonyl}piperazine-1-carboxylate]: the results for the CC50 at 3 days in the data set “in vitro” (7-pt Assay) and in “in vitro” (Extended 8-pt Assay) were 294000 nM and 224000 nM, respectively. This molecule showed a CC50/EC50 with HCV reporter replicon (7-pt Assay) of 1937. For the same molecule, the values for the pEC50 with HCV reporter replicon (setting [4]) and in the data set on HCV reporter replicon (setting [3]) were 6.82 and 6.72, respectively. Moreover, the Sol. in data set [1] (7-pt Assay) was more than 320 µM; in data set [1] (7-pt Assay, unit not given) it was 320; in data set [1] (Extended 8-pt Assay), more than 320 µM.
Turning to `Cc1cc(CSC(C)(C)[C@@H](NS(=O)(=O)c2ccc(Oc3ccc(Br)cc3)cc2)C(=O)NO)no1` [Example 14, N^2-{[4-(4-bromophenoxy)phenyl]sulfonyl}-N^1-hydroxy-3{[(5-methylisoxazol-3-yl)methyl]thio}-D-valinamide], the CC50 at 3 days in “in vitro” (7-pt Assay) is 78000 nM; in the data set “in vitro” (Extended 8-pt Assay) it was 41000 nM. In the data set with HCV reporter replicon (7-pt Assay), the CC50/EC50 is recorded as 49. The pEC50 in the data set on HCV reporter replicon (setting [2]) was 5.80; with HCV reporter replicon (setting [3]) it was 5.72. In addition, the Sol. in data set [1] (7-pt Assay) was more than 320 µM; in data set [1] (7-pt Assay, unit not given) it was 320; in data set [1] (Extended 8-pt Assay), less than 320 µM.
Consider `O=C(NO)[C@@H]1CCCC[C@H]1S(=O)(=O)CCc1ccccc1` [Example 5, trans-2-Phenylethanesulfonyl-cyclohexanecarboxylic Acid Hydroxyamide], for which the CC50 at 3 days in the data set “in vitro” (7-pt Assay) and in “in vitro” (Extended 8-pt Assay) was more than 320000 nM throughout. Further, in the data set with HCV reporter replicon (7-pt Assay), the CC50/EC50 amounted to 1333. Also, the negative-log EC50 (pEC50) in the data set on HCV reporter replicon (setting [4]) is 6.62; with HCV reporter replicon (setting [3]) it was 6.51. Moreover, the Sol. in data set [1] (7-pt Assay) is more than 320 µM; in data set [1] (7-pt Assay, unit not given), 320; in data set [1] (Extended 8-pt Assay), more than 320 µM.
